± gives the expanded uncertainty stated by the source.
Legend:
[1] = 298.15 K; 101.33 kPa; Liquid; Vibrating tube method
[2] = refractive index (Na D-line) (dimensionless); details: 298.15 K; 101.33 kPa; Liquid; Standard Abbe refractometry

mass density [1] [kg/m3] | refractive index [2] | Compound
1104.42 ± 6.6 | 1.43329 ± 0.0012 | CCCCCCCC[n+]1ccn(C)c1.F[B-](F)(F)F [1-methyl-3-octylimidazolium tetrafluoroborate]
773.76 ± 0.24 | 1.42403 ± 0.0007 | C1CCCCC1 [cyclohexane]
655.06 ± 0.19 | 1.37287 ± 0.00068 | CCCCCC [hexane]
1058.5 ± 0.12 | 1.52581 ± 0.00068 | c1ccsc1 [thiophene]

Source: the NIST ThermoML archive (doi:10.1021/je700126z)
